The values below come from patent US9657110B2, “Polypeptides and use thereof” (ASTON UNIVERSITY, priority 2011, dated 2017).

Assay [1] relates to HOB cells. The assay can be described thus: Cell adhesion assay (attachment and spreading) on FN or TG-FN matrix with RGD or RAD peptide. The format is cell-based, human. The note with it: TG-FN matrix, peptide 100-300 μg/ml. On the procedure: The cell adhesion assay was carried out as previously described (Wang et al., 2010). Briefly, 96-well plastic tissue culture plates were coated with 5 μg/ml FN in 50 mM Tris-HCl, pH 7.4 at 4° C. overnight, after washing three times with 100 μl of 50 mM Tris-HCl, pH7.4, gplTG (20 μg/ml) in 2 mM EDTA in PBS, pH 7.4 was added to the wells for 1 h at 37° C. and the wells were washed three times with 50 mM Tris-HCl, pH7.4. Serum-starved (for 16 h) HOB cells with different treatments as introduced below in serum-free medium were detached by trypsinization and then treated with trypsin inhibitor. Cells were washed three times with serum free medium and seeded onto either FN or TG-FN matrix for 20-40 min. Peptides P1 or scrambled P1 (P1s), were added at concentrations between 100 μg/ml and 300 μg/ml. […] Attached cells were washed once with PBS, pH 7.4 and then fixed with 3.7% paraformaldehyde, further permeabilised with 0.1% (v/v) Triton® X-100 detergent in PBS, and co-stained with May-Grunwald and Giemsa stains as described previously (Jones et al., 1997). Images of stained cells from non-overlapping fields of view were photographed at 20× magnification and analyzed using the imaging analysis program Scion Image (National Institute of Health). Cell attachment and spreading were quantified, and the number of cells per image was assessed as described previously (Telci et al., 2008). Cell attachment on FN without peptide was considered as the control value for all the experiments unless stated otherwise. The mean number of attached cells form three wells was calculated and that of the control was considered as 100%. The mean number of attached cells (cell attachment) for each sample was then expressed as the percentage of cell attachment on FN. The mean percentage of attached cells that are spread (cell spreading) for each sample was determined separately, and the mean percentage of spread cells on FN control was expressed as 100%. The mean percentage of spread cells for each sample was then normalised against that of FN control Cell attachment on FN without the RGD peptide was considered as the control value for most of the experiments unless stated otherwise The mean number of attached cells from three wells was calculated and that of the control was considered as 100%. The mean number of attached cells (cell attachment) for each sample was then expressed as the percentage of cell attachment on FN. The mean percentage of attached cells that are spread (cell spreading) for each sample was determined separately, and the mean percentage of spread cells on the FN control was expressed as 100%. The mean percentage of spread cells for each sample was then normalised against that of FN control Cell pre-treatments included: PKCα inhibitor Go6976 (5 μM) or GK21 peptide (8 μM) for 1 h in serum-free medium prior to cell detachment; heparinase (15 mU/ml) or chondroitinase (15 mU/ml) to cells in suspension in serum free medium for 1 h. For the detection of the signalling molecules via Western blotting, the cell adhesion assay was performed in 60 mm Petri dishes and cells were collected into cell lysis buffer (Santa Cruz, UK) as described previously and pre-cleared by centrifugation at 300×g for 10 min. Western blotting was performed with specific anti-p-397 FAK or p-ERK1/2 antibodies. Membranes were stripped (Telci et al., 2008) and total FAK and ERK1/2 detected using anti-FAK and anti-ERK1/2 antibodies as listed in Table 2, while α-tubulin was used as an equal loading standard (Wang et al., 2011).
Cell adhesion and spreading assays were performed as described above in Example 1 method ‘Cell adhesion assay’

Assay [2] has as its system p-397 FAK. The assay can be described thus: Western blotting of p-397 FAK after cell adhesion assay. The class given is cell-based, human. Particulars: HOB on FN, RGD, peptide 100 μg/ml. On the procedure: (§1) Cell lysates containing 50 μg of protein were dissolved in 2× Laemmli buffer (Sigma-Aldrich Ltd, Dorset, UK) and separated by SDS-PAGE. Western blotting was performed using specific primary antibodies as described above. Primary antibodies were detected using the appropriate secondary antibody conjugated to horse radish peroxidase. Detection was by chemiluminescence (Amersham ECL™ Western Blotting System, GE Healthcare, UK).
(§2) The cell adhesion assay was carried out as previously described (Wang et al., 2010). […] Images of stained cells from non-overlapping fields of view were photographed at 20× magnification and analyzed using the imaging analysis program Scion Image (National Institute of Health). Cell attachment and spreading were quantified, and the number of cells per image was assessed as described previously (Telci et al., 2008). […] The mean number of attached cells form three wells was calculated and that of the control was considered as 100%. The mean number of attached cells (cell attachment) for each sample was then expressed as the percentage of cell attachment on FN. The mean percentage of attached cells that are spread (cell spreading) for each sample was determined separately, and the mean percentage of spread cells on FN control was expressed as 100%. […]

Assay [3] has as its system p-ERK1/2. The assay can be described thus: Western blotting of p-ERK1/2 after cell adhesion assay. The class given is cell-based, human. Particulars: HOB on FN, RGD, peptide 100 μg/ml. As for the experimental part: as §1, §2
In assay [4] the test system is human recombinant TG2 binding to FN and its 45 kDa and 70 kDa fragments. The assay can be described thus: Inhibition of purified TG2 binding to FN by TG2-derived peptides (ELISA). Particulars: peptide 10 μM-1 mM, effect at higher concentrations. As for the experimental part: 96-well Microtitre 96-well plates were coated overnight with either full length FN (5 μg/ml), its 45 kDa (54 μg/ml) or 70 kDa (45 μg/ml) fragments, in 50 mM Tris-HCl, pH 7.4 as previously described (Verderio et al., 2003b). Wells were blocked with 3% BSA (w/v) in TBS pH 7.6. After three washes with PBS pH7.4, competitive peptides diluted in PBS, 2 mM EDTA, pH 7.4 were added to the wells at concentrations from 10 μM-1 mM and incubated for 1 h at room temperature. Wells were washed three times with PBS pH7.4 and purified human recombinant TG2 was added at a final concentration of 2 μg/ml in the presence of the different concentrations of P2 or P2s peptides and incubated for 1 h at room temperature. After three washes with PBS pH7.4 bound TG2 was measured via ELISA as introduced above. […] The treated TG2 was then detected by the ELISA assay as described above.
human recombinant TG2 binding to FN and its 45 kDa and 70 kDa fragments, sequence (P02751 291-608 limits assumed): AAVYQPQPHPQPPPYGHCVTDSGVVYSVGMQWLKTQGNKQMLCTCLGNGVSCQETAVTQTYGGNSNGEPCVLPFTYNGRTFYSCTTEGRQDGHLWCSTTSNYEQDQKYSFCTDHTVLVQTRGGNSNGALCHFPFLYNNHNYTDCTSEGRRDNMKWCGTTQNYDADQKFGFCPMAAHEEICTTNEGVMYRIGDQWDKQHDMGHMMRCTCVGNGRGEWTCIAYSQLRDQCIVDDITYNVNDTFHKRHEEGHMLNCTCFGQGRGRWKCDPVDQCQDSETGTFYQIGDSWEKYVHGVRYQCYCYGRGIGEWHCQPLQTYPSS

Regarding “FNRADLKPRCGSSNKSR (Scrambled Control Peptide) [P1s, scrambled control peptide for P1, reference compound]”, in assay [1], the “effect on attachment and spreading of HOB cells on TG-FN in the presence of the RGD peptide” value is listed as “almost no effect”. For the same sequence, the “phosphorylation of p-FAK397” value in assay [2] is listed as “not found”. Moreover, the “phosphorylation of p-ERK1/2” value in assay [3] is listed as “not found”. Turning to “EECRLAEELLEDVL (Scrambed Control Peptide) [P2s, scrambled P2 peptide, reference compound]”, in assay [4], the “inhibition of wild type TG2 binding to FN and its 45 and 70 kDa fragments” value is on record as “No effect”. In the case of “AEELVLERCDLELE (listed as Homo sapiens) [P2, peptide corresponding to the N-terminal end of TG2]”, the “inhibition of wild type TG2 binding to FN and its 45 and 70 kDa fragments” value in assay [4] is given as “moderate but significant inhibition”.
